From patent US20150126545A1, “COMPOSITIONS CONTAINING KINASE INHIBITORS” (AbbVie Inc., priority 2011, published 2015)
In brackets after ≈: the same amount, converted by molar mass.

Assays:
[1] = Solubility of free base in PEG-300/Cremophor EL/Ethanol vehicles; format: physicochemical
From the text: Solubility of N-(4-{4-amino-7-[1-(2-hydroxyethyl)-1H-pyrazol-4-yl]thieno[3,2-c]pyridin-3-yl}phenyl)-N′-(3-fluorophenyl)urea Free Base in PEG-300/Cremophor EL/Ethanol Vehicles

[2] = Solubility of free base in various media; format: physicochemical
From the text: Solubility of N-(4-{4-amino-7-[1-(2-hydroxyethyl)-1H-pyrazol-4-yl]thieno[3,2-c]pyridin-3-yl}phenyl)-N′-(3-fluorophenyl)urea Free Base in Various Media

[3] = Pharmacokinetics of IV formulation in humans (Phase I, advanced solid tumors); format: in vivo; conditions: human, plasma, IV infusion approx. 2 hour
From the text: IV formulations of the invention were used in an open-label Phase I human study evaluating the safety and pharmacokinetics of N-(4-{4-amino-7-[1-(2-hydroxyethyl)-1H-pyrazol-4-yl]thieno[3,2-c]pyridin-3-yl}phenyl)-N′-(3-fluorophenyl)urea as monotherapy in subjects with advanced solid tumors, i.e., mixture of polyethylene glycol 300, polyoxyl 35 castor oil, and ethanol in a ratio of 45:45:10% w/w, and N-(4-{4-amino-7-[1-(2-hydroxyethyl)-1H-pyrazol-4-yl]thieno[3,2-c]pyridin-3-yl}phenyl)-N′-(3-fluorophenyl)urea, wherein the N-(4-{4-amino-7-[1-(2-hydroxyethyl)-1H-pyrazol-4-yl]thieno[3,2-c]pyridin-3-yl}phenyl)-N′-(3-fluorophenyl)urea is present in a concentration of about 6 mg/mL.
The number of subjects that entered the studies and completed at least a portion of the studies are noted. Subjects entered the study and were assigned to receive one of the following doses: 8 mg, 16 mg, or 32 mg.
Doses were administered on Day 1 and Day 15 of each 28 day cycle with an approximately 2 hour infusion. On Day 1 and Day 15, plasma samples are collected at time 0 (prior to infusion), 1 h 55 min (just before the end of the infusion), and at 0.5, 1, 2, 4, 6, 8, 10, 24 hours post the end of infusion. The plasma concentrations of N-(4-{4-amino-7-[1-(2-hydroxyethyl)-1H-pyrazol-4-yl]thieno[3,2-c]pyridin-3-yl}phenyl)-N′-(3-fluorophenyl)urea were determined, and the values for the pharmacokinetic parameters were calculated and shown in Table 7.

[4] = 8 mg, 8 mg, Study Day 1, mean ± SD, N 4
[5] = 8 mg, 8 mg, Study Day 15, mean ± SD, N 4
[6] = 16 mg, 16 mg, Study Day 15, N 1
[7] = 32 mg, 32 mg, Study Day 1, mean, N 2
[8] = 32 mg, 32 mg, Study Day 15, mean, N 2

solubility ([1]; PEG-300/Cremophor EL/Ethanol 42.5/42.5/15, organic solvent or mixture, PEG-300/Cremophor EL/Ethanol ratio 42.5/42.5/15, 5° C., read-out: Solubility (mg/mL) at 5° C.): 11.9 mg/mL
solubility ([1]; PEG-300/Cremophor EL/Ethanol 42.5/42.5/15, organic solvent or mixture, PEG-300/Cremophor EL/Ethanol ratio 42.5/42.5/15, RT, read-out: Solubility (mg/mL) at RT): 10 mg/mL
solubility ([1]; PEG-300/Cremophor EL/Ethanol 45/45/10, organic solvent or mixture, PEG-300/Cremophor EL/Ethanol ratio 45/45/10, 5° C., read-out: Solubility (mg/mL) at 5° C.): 14.1 mg/mL
solubility ([1]; PEG-300/Cremophor EL/Ethanol 45/45/10, organic solvent or mixture, PEG-300/Cremophor EL/Ethanol ratio 45/45/10, RT, read-out: Solubility (mg/mL) at RT): 11.6 mg/mL
solubility ([1]; PEG-300/Cremophor EL/Ethanol 47.5/47.5/5, organic solvent or mixture, PEG-300/Cremophor EL/Ethanol ratio 47.5/47.5/5, 5° C., read-out: Solubility (mg/mL) at 5° C.): 16.4 mg/mL
solubility ([1]; PEG-300/Cremophor EL/Ethanol 47.5/47.5/5, organic solvent or mixture, PEG-300/Cremophor EL/Ethanol ratio 47.5/47.5/5, RT, read-out: Solubility (mg/mL) at RT): 13 mg/mL
solubility ([2]; 10% Cremophor EL in water, aqueous with cosolvent or surfactant or cyclodextrin, read-out: Solubility): 106 µg/mL (≈ 217 µM)
solubility ([2]; 10% Polysorbate 80 in water, aqueous with cosolvent or surfactant or cyclodextrin, read-out: Solubility): 146 µg/mL (≈ 299 µM)
solubility ([2]; 10% Solutol HS in water, aqueous with cosolvent or surfactant or cyclodextrin, read-out: Solubility): 152 µg/mL (≈ 311 µM)
solubility ([2]; Cremophor EL, organic solvent or mixture, Cremphor EL, read-out: Solubility): 7100 µg/mL (≈ 14500 µM)
solubility ([2]; DMA, organic solvent or mixture, read-out: Solubility): 35000 to 50000 µg/mL (≈ 71600 to 102000 µM)
solubility ([2]; Ethanol, organic solvent or mixture, read-out: Solubility): 130 µg/mL (≈ 266 µM)
solubility ([2]; PEG 300, organic solvent or mixture, read-out: Solubility): 20000 µg/mL (≈ 40900 µM)
solubility ([2]; PEG 400, organic solvent or mixture, read-out: Solubility): 20900 µg/mL (≈ 42800 µM)
solubility ([2]; Polysorbate 80, organic solvent or mixture, read-out: Solubility): 2500 µg/mL (≈ 5120 µM)
solubility ([2]; Propylene Glycol, organic solvent or mixture, read-out: Solubility): 1200 µg/mL (≈ 2460 µM)
solubility ([2]; Water (across physiological pH range), read-out: Solubility): < 0.03 µg/mL
solubility ([2]; water, pH 7.4, aqueous buffer, read-out: solubility in water): < 0.03 µg/mL
half-life ([3]; 8 mg, 8 mg, Study Day 1, harmonic mean ± pseudo SD, N 4): 642 ± 498 min
AUC(0-inf) [3, 4]: 2960 ± 1540 ng·h/mL
Cmax [3, 4]: 235 ± 82.1 ng/mL
Tmax [3, 4]: 1.9 h
half-life ([3]; 8 mg, 8 mg, Study Day 15, harmonic mean ± pseudo SD, N 4): 846 ± 444 min
AUC(0-inf) [3, 5]: 2940 ± 1630 ng·h/mL
Cmax [3, 5]: 246 ± 107 ng/mL
Tmax [3, 5]: 1.9 h
AUC(0-inf) ([3]; 16 mg, 16 mg, Study Day 1, N 1): 2350 ng·h/mL
Cmax ([3]; 16 mg, 16 mg, Study Day 1, N 1): 366 ng/mL
Tmax ([3]; 16 mg, 16 mg, Study Day 1, N 1): 2.5 h
half-life ([3]; 16 mg, 16 mg, Study Day 1, N 1): 588 min
AUC(0-inf) [3, 6]: 3690 ng·h/mL
Cmax [3, 6]: 736 ng/mL
Tmax [3, 6]: 1.9 h
half-life [3, 6]: 756 min
half-life ([3]; 32 mg, 32 mg, Study Day 1, harmonic mean, N 2): 534 min
AUC(0-inf) [3, 7]: 8730 ng·h/mL
Cmax [3, 7]: 1310 ng/mL
Tmax [3, 7]: 1.9 h
half-life ([3]; 32 mg, 32 mg, Study Day 15, harmonic mean, N 2): 678 min
AUC(0-inf) [3, 8]: 8620 ng·h/mL
Cmax [3, 8]: 1370 ng/mL
Tmax [3, 8]: 2.2 h
SMILES: Nc1ncc(-c2cnn(CCO)c2)c2scc(-c3ccc(NC(=O)Nc4cccc(F)c4)cc3)c12 [API, N-(4-{4-amino-7-[1-(2-hydroxyethyl)-1H-pyrazol-4-yl]thieno[3,2-c]pyridin-3-yl}phenyl)-N′-(3-fluorophenyl)urea]
